The source made the active and inactive calls.
Tests used:
Type in all cases: functional
UO-31 = experiment: Cytotoxicity against human UO31 cells assessed as cell growth at 10 uM after 48 hrs by sulforhodamine B assay
PC-3 = experiment: Cytotoxicity against human PC3 cells assessed as cell growth at 10 uM after 48 hrs by sulforhodamine B assay
NCI-H23 = experiment: Cytotoxicity against human NCI-H23 cells assessed as cell growth at 10 uM after 48 hrs by sulforhodamine B assay
HOP-92 = experiment: Cytotoxicity against human HOP92 cells assessed as cell growth at 10 uM after 48 hrs by sulforhodamine B assay
NCI-H522 = experiment: Cytotoxicity against human NCI-H522 cells assessed as cell growth at 10 uM after 48 hrs by sulforhodamine B assay
NCI-H322M = experiment: Cytotoxicity against human NCI-H322M cells assessed as cell growth at 10 uM after 48 hrs by sulforhodamine B assay
Hs-578T = experiment: Cytotoxicity against human Hs 578T cells assessed as cell growth at 10 uM after 48 hrs by sulforhodamine B assay
UACC-62 = experiment: Cytotoxicity against human UACC62 cells assessed as cell growth at 10 uM after 48 hrs by sulforhodamine B assay
NCI-H226 = experiment: Cytotoxicity against human NCI-H226 cells assessed as cell growth at 10 uM after 48 hrs by sulforhodamine B assay
KM12 = experiment: Cytotoxicity against human KM12 cells assessed as cell growth at 10 uM after 48 hrs by sulforhodamine B assay
HL-60(TB) = experiment: Cytotoxicity against human HL-60(TB) cells assessed as cell growth at 10 uM after 48 hrs by sulforhodamine B assay
MCF7 = experiment: Cytotoxicity against human MCF7 cells assessed as cell growth at 10 uM after 48 hrs by sulforhodamine B assay
CCRF-CEM = experiment: Cytotoxicity against human CCRF-CEM cells assessed as cell growth at 10 uM after 48 hrs by sulforhodamine B assay
TK-10 = experiment: Cytotoxicity against human TK10 cells assessed as cell growth at 10 uM after 48 hrs by sulforhodamine B assay
EKVX = experiment: Cytotoxicity against human EKVX cells assessed as cell growth at 10 uM after 48 hrs by sulforhodamine B assay
SR = experiment: Cytotoxicity against human SR cells assessed as cell growth at 10 uM after 48 hrs by sulforhodamine B assay
OVCAR-5 = experiment: Cytotoxicity against human OVCAR5 cells assessed as cell growth at 10 uM after 48 hrs by sulforhodamine B assay
SW-620 = experiment: Cytotoxicity against human SW620 cells assessed as cell growth at 10 uM after 48 hrs by sulforhodamine B assay
SK-MEL-28 = experiment: Cytotoxicity against human SK-MEL-28 cells assessed as cell growth at 10 uM after 48 hrs by sulforhodamine B assay
MDA-MB-231 = experiment: Cytotoxicity against human MDA-MB-231 cells assessed as cell growth at 10 uM after 48 hrs by sulforhodamine B assay
OVCAR-8 = experiment: Cytotoxicity against human OVCAR8 cells assessed as cell growth at 10 uM after 48 hrs by sulforhodamine B assay
SK-OV-3 = experiment: Cytotoxicity against human SKOV3 cells assessed as cell growth at 10 uM after 48 hrs by sulforhodamine B assay
SNB-75 = experiment: Cytotoxicity against human SNB75 cells assessed as cell growth at 10 uM after 48 hrs by sulforhodamine B assay
LOX IMVI = experiment: Cytotoxicity against human LOXIMVI cells assessed as cell growth at 10 uM after 48 hrs by sulforhodamine B assay
OVCAR-4 = experiment: Cytotoxicity against human OVCAR4 cells assessed as cell growth at 10 uM after 48 hrs by sulforhodamine B assay
HCT-15 = experiment: Cytotoxicity against human HCT15 cells assessed as cell growth at 10 uM after 48 hrs by sulforhodamine B assay
HT-29 = experiment: Cytotoxicity against human HT-29 cells assessed as cell growth at 10 uM after 48 hrs by sulforhodamine B assay
UACC-257 = experiment: Cytotoxicity against human UACC257 cells assessed as cell growth at 10 uM after 48 hrs by sulforhodamine B assay
MDA-MB-468 = experiment: Cytotoxicity against human MDA-MB-468 cells assessed as cell growth at 10 uM after 48 hrs by sulforhodamine B assay
T47D = experiment: Cytotoxicity against human T47D cells assessed as cell growth at 10 uM after 48 hrs by sulforhodamine B assay
ACHN = experiment: Cytotoxicity against human ACHN cells assessed as cell growth at 10 uM after 48 hrs by sulforhodamine B assay
U-251 = experiment: Cytotoxicity against human U251 cells assessed as cell growth at 10 uM after 48 hrs by sulforhodamine B assay
Malme-3M = experiment: Cytotoxicity against human MALME-3M cells assessed as cell growth at 10 uM after 48 hrs by sulforhodamine B assay
HOP-62 = experiment: Cytotoxicity against human HOP62 cells assessed as cell growth at 10 uM after 48 hrs by sulforhodamine B assay
IGROV-1 = experiment: Cytotoxicity against human IGROV1 cells assessed as cell growth at 10 uM after 48 hrs by sulforhodamine B assay
A498 = experiment: Cytotoxicity against human A498 cells assessed as cell growth at 10 uM after 48 hrs by sulforhodamine B assay
A549 = experiment: Cytotoxicity against human A549 cells assessed as cell growth at 10 uM after 48 hrs by sulforhodamine B assay
MDA-MB-435 = experiment: Cytotoxicity against human MDA-MB-435 cells assessed as cell growth at 10 uM after 48 hrs by sulforhodamine B assay
DU-145 = experiment: Cytotoxicity against human DU145 cells assessed as cell growth at 10 uM after 48 hrs by sulforhodamine B assay
BT-549 = experiment: Cytotoxicity against human BT549 cells assessed as cell growth at 10 uM after 48 hrs by sulforhodamine B assay
SK-MEL-2 = experiment: Cytotoxicity against human SK-MEL-2 cells assessed as cell growth at 10 uM after 48 hrs by sulforhodamine B assay
COLO 205 = experiment: Cytotoxicity against human COLO205 cells assessed as cell growth at 10 uM after 48 hrs by sulforhodamine B assay
HCC 2998 = experiment: Cytotoxicity against human HCC2998 cells assessed as cell growth at 10 uM after 48 hrs by sulforhodamine B assay
786-0 = experiment: Cytotoxicity against human 786-0 cells assessed as cell growth at 10 uM after 48 hrs by sulforhodamine B assay
SK-MEL-5 = experiment: Cytotoxicity against human SK-MEL-5 cells assessed as cell growth at 10 uM after 48 hrs by sulforhodamine B assay
RXF 393 = experiment: Cytotoxicity against human RXF393 cells assessed as cell growth at 10 uM after 48 hrs by sulforhodamine B assay
SF-295 = experiment: Cytotoxicity against human SF295 cells assessed as cell growth at 10 uM after 48 hrs by sulforhodamine B assay
SF-539 = experiment: Cytotoxicity against human SF539 cells assessed as cell growth at 10 uM after 48 hrs by sulforhodamine B assay
RPMI-8226 = experiment: Cytotoxicity against human RPMI8226 cells assessed as cell growth at 10 uM after 48 hrs by sulforhodamine B assay
SN12C = experiment: Cytotoxicity against human SN12C cells assessed as cell growth at 10 uM after 48 hrs by sulforhodamine B assay
M14 = experiment: Cytotoxicity against human M14 cells assessed as cell growth at 10 uM after 48 hrs by sulforhodamine B assay
NCI-H460 = experiment: Cytotoxicity against human NCI-H460 cells assessed as cell growth at 10 uM after 48 hrs by sulforhodamine B assay
SNB-19 = experiment: Cytotoxicity against human SNB19 cells assessed as cell growth at 10 uM after 48 hrs by sulforhodamine B assay
K562 = experiment: Cytotoxicity against human K562 cells assessed as cell growth at 10 uM after 48 hrs by sulforhodamine B assay
MOLT-4 = experiment: Cytotoxicity against human MOLT4 cells assessed as cell growth at 10 uM after 48 hrs by sulforhodamine B assay
OVCAR-3 = experiment: Cytotoxicity against human OVCAR-3 cells assessed as cell growth at 10 uM after 48 hrs by sulforhodamine B assay
HCT-116 = experiment: Cytotoxicity against human HCT116 cells assessed as cell growth at 10 uM after 48 hrs by sulforhodamine B assay
SF-268 = experiment: Cytotoxicity against human SF268 cells assessed as cell growth at 10 uM after 48 hrs by sulforhodamine B assay

Measured: Activity

Cc1c(OCc2nnc(S)o2)ccc2c(-c3ccccc3)cc(=O)oc12
inactive: all assays above

— ChEMBL document CHEMBL1240439, “Synthesis and docking studies of novel benzopyran-2-ones with anticancer activity” (2010)
